In the experiment the target is T1, Protein O-GlcNAcase (Homo sapiens, UniProt O60502).
T1 sequence (O60502 whole entry): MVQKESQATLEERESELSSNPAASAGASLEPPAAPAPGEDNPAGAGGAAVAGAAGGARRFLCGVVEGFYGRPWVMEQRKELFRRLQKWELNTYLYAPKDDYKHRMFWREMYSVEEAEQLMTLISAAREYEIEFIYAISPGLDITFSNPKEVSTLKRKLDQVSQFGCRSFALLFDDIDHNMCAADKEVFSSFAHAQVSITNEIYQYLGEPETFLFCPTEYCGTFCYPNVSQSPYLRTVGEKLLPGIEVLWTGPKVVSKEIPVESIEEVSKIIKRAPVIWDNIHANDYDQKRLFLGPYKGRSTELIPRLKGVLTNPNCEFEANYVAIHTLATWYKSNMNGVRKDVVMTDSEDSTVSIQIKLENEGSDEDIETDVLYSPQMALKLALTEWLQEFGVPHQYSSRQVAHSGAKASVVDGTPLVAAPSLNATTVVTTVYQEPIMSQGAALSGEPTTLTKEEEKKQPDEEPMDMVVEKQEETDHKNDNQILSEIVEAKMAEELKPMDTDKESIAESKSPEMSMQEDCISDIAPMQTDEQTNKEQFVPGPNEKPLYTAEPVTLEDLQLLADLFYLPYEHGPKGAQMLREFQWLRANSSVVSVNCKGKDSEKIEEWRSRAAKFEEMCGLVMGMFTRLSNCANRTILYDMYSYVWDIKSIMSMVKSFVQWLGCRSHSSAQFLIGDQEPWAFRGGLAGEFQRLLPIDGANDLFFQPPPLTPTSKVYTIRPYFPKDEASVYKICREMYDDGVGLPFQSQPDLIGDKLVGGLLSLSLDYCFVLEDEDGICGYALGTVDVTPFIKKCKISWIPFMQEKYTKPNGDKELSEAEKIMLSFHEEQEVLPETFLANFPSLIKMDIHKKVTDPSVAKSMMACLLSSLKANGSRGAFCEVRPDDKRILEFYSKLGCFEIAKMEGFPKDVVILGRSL
Put plainly: Human O-GlcNAcase enzyme inhibition assay: 5 μl of the appropriate concentration of a solution of inhibitor in McIlvaine's Buffer (pH 6.5) in 2% DMSO (for a dose response curve calculation) is added into each well of a 384-well plate (Greiner, 781900). Then, 20 nM of His-Tagged hOGA and 10 μM of FL-GlcNAc (Fluorescein mono-beta-D-(2-deoxy-2-N-acetyl) glucopyranoside; Marker Gene Technologies Inc, M1485) were added to the 384-well plate for a final volume of 20 μl. After incubation for 60 min at room temperature, the reaction was terminated by the addition of 10 μL of stop buffer (200 mM glycine, pH 10.75).

The structures appear in SMILES notation.

Usually IC50 stands for the point on the concentration scale where inhibition reaches its midpoint. As for `CC(c1ccc2c(c1)OCC2)N1CCN(c2ncnc3c2CS(=N)(=O)C3)CC1` (stereo unspecified), the IC50 is < 50 nM.

Values taken from ChEMBL document CHEMBL5728999, “Sulfoximine glycosidase inhibitors” (2022).
